Molecules are shown by their SMILES. Like-named read-outs stand apart in the source and are kept apart here. Where only a bound is given, the exact number is not on record here.

One data set relates to P. aeruginosa DA7232. In words: Levofloxacin accumulation assay. It is filed as cell-based, Pseudomonas aeruginosa. The following applies: vs vehicle-treated controls. As for the experimental part:
The bacterial culture samples were treated on ice for 15 min, centrifuged, washed with PBSMG (1X PBS, 1 mM MgCl2, 100 mM glucose) and then resuspended in 1 mL of glycine-HCl buffer (pH 3.0) overnight for cell lysis, followed by centrifugation. The fluorescence of 100 µL of supernatant was read at 490 nm following a 355 nm excitation in a SpectraMax iD5 spectrophotometer (Molecular Devices, San Jose, CA, USA).

Data set [1] deals with P. aeruginosa ATCC 27853. In words: Membrane polarization assay DiOC2(3). The data set is classed as cell-based, Pseudomonas aeruginosa. As for the experimental part: RND efflux pumps require an intact proton motive force across the inner membrane to mediate drug efflux. Accordingly, collapse of the membrane potential could indirectly disable efflux activity and result in apparent antibiotic potentiation. To determine whether TXA11114 dissipates the membrane potential of P. aeruginosa, membrane polarization was assessed using the fluorescent probe 3,3′-diethyloxacarbocyanine iodide (DiOC2(3)). DiOC2(3) accumulates in cells with polarized membranes, undergoing a concentration-dependent shift from green to red fluorescence due to dye stacking; membrane depolarization prevents this shift. […] CCCP and azithromycin were included as positive and negative controls, respectively. […] This discrepancy likely reflects a methodological limitation of the DiOC2(3) assay in Gram-negative bacteria. Specifically, EDTA treatment is required to transiently permeabilize the outer membrane to permit DiOC2(3) access to the cytoplasmic membrane (see Methods). While necessary for probe uptake, EDTA can sensitize cells to secondary perturbations and may exaggerate subtle fluorescence changes at supraphysiological compound concentrations.
P. aeruginosa membrane polarization assays were conducted as described previously using strain ATCC 27853. Briefly, mid-exponential phase (OD600 of 0.5) P. aeruginosa was pelleted by centrifugation at 3000× g for 10 min at room temperature. Cells were then resuspended in 1× PBS, treated with 10 mM EDTA for 5 min and then centrifuged at 300× g for 10 min to remove EDTA. EDTA-treated cells were pelleted and resuspended to an OD600 of 1.0 in assay resuspension buffer. A 6 mM DiOC2(3) stock in DMSO was added to cells for a final concentration of 30 µM. DiOC2(3)-loaded cells were then added to a 96-well black bottom microplate for a final volume of 200 µL. […] After 15 min incubation at 37 °C in dark, DiOC2(3) fluorescence was recorded using the SpectraMax iD5 spectrophotometer (Molecular Devices, San Jose, CA, USA) using 450 nm excitation. Red fluorescence intensity was recorded at 670 nm emission.

Data set [2] has as its system P. aeruginosa ATCC 27853. In words: Intracellular ATP levels. It is filed as cell-based, Pseudomonas aeruginosa. Particulars: three hours post-treatment. The procedure:
Further, a deviation from normal membrane function can affect the activity of respiratory components and diminish ATP synthesis. Thus, an indirect approach to assess a drug’s membrane effect is by monitoring cellular ATP levels after treatment. To exclude ATP depletion as a TXA11114 MoA, bacterial ATP levels were evaluated three hours post-treatment. […] Azithromycin was used as a negative control.
P. aeruginosa intracellular ATP levels were determined as described previously using an ATP determination kit (Invitrogen, Life Technologies, Carlsbad, CA, USA). Bacterial culture strain ATCC 27853 was grown to the mid-log phase (OD600 = 0.7), washed, and resuspended in the same volume of PBSM (1X PBS, 1mM MgCl2). […] After treatment, the cells were lysed in chloroform which was subsequently removed by boiling at 80 °C. The persistent ATP from cell lysate was measured in a 96-well black flat-bottom plate by measuring the luminescence. Luminescence was converted to concentration from standard curve. […] Error bars represent the standard deviation of triplicates.

The nature of data set [3]: Plasma protein binding (equilibrium dialysis). The data set is classed as in vitro ADME. As for the experimental part: Plasma protein binding was determined experimentally using equilibrium dialysis, with compound concentrations in plasma and buffer quantified by LC-MS/MS.
A general note: Equilibrium dialysis compares concentrations on both sides of a semipermeable membrane.

The nature of data set [4]: Microsomal stability. Particulars: pH 7.4. It is filed as in vitro ADME, human. The procedure: (§1) The metabolic stability of TXA11114 was evaluated in liver microsomes from human (HLM), dog (DLM), rat (RLM), and mouse (MLM). Test compound disappearance over time was monitored by LC-MS/MS. Verapamil (HLM and RLM) and imipramine (DLM and MLM) were used as positive controls. […] Aliquots (70 µL) were transferred to 96-well reaction plates and pre-incubated at 37 °C for 5 min. Reactions were initiated by adding 30 µL NADPH (final concentration 1 mM). Control incubations lacking NADPH were included to assess non-enzymatic degradation. Reactions were terminated at 0, 5, 15, 30, and 60 min by the addition of 100 µL ice-cold acetonitrile containing glipizide as an internal standard.

Data set [5] can be described thus: Microsomal stability. It is filed as in vitro ADME. Particulars: rat, liver microsomes, pH 7.4; read-out: Microsome Stability t1/2. As for the experimental part:
as §1

Data set [6] can be described thus: in vitro. It is filed as cell-based. The following applies: human. As for the experimental part: (§2) The cytotoxicity of TXA11114 was evaluated in HEK293T and A549 cell lines using the CellTiter-Glo™ assay (Promega, Madison, WI, USA). HEK293T cells (human embryonic kidney cells transformed with sheared adenovirus 5 DNA and expressing SV40 large T antigen) and A549 cells (human alveolar basal epithelial adenocarcinoma cell line; hypotriploid with a modal chromosome number of 66) were obtained from Sai Life Sciences Ltd. (Hyderabad, India). These cell lines are well-characterized and consistent with commonly used reference lines (e.g., A549, ATCC CCL-185).
(§3) TXA11114 was tested in a dose–response format with a top concentration of 20 µM using 2-fold serial dilutions in triplicate. Doxorubicin and staurosporine were included as reference controls. Cells (1200 cells/well in 27 µL complete medium) were seeded into 384-well plates and incubated overnight at 37 °C with 5% CO2. The following day, cells were treated with 3 µL of 10× serially diluted compounds. After a 24 h incubation, CellTiter-Glo reagent was added, and plates were gently shaken for 15–20 min at room temperature. Luminescence was measured using an EnVision multimode plate reader (PerkinElmer, Thane, India).

Data set [7] in a line: in vitro. The data set is classed as cell-based. Particulars: human. The procedure:
as §2, §3
The source holds these as a separate data set.

In another data set the test system is P. aeruginosa. Also noted: method as in PMID 35052908, PMID 35740123. The following applies: against P. aeruginosa; cited from earlier work.

The term IC50 denotes the concentration needed to halve the response being measured. Consider `NCC(F)C[C@@H](N)CNC(=O)c1cc2ccc(-c3ccc(F)cc3)cc2[nH]1` (stereo partly drawn) [TXA11114, N-((2R)-2,5-diamino-4-fluoropentyl)-6-(4-fluorophenyl)-1H-indole-2-carboxamide], for which the Intracellular levofloxacin accumulation entry in the data set with P. aeruginosa DA7232 is given as “marked increase in intracellular levofloxacin accumulation”. Further, the “Concentrations with modest increase in apparent depolarization” value in the data set with P. aeruginosa ATCC 27853 [1] is reported as more than 10 µg/mL. The Membrane depolarization result in the data set on P. aeruginosa ATCC 27853 [1] (0.01–20 µM) is reported as “did not induce significant membrane depolarization”. The “Cellular ATP level” value in the data set with P. aeruginosa ATCC 27853 [2] is on record as “did not result in ATP depletion”. The fraction unbound in [3] (dog) was 0.011; in data set [3] (human, across the four species tested, read-out: Plasma protein binding), 0.01 to 0.02; in data set [3] (human, read-out: Protein Binding), 0.01; in [3] (mouse), 0.011; in [3] (rat), 0.015. In addition, the half-life at 1 µM in the data set “Microsomal stability [4]” (human, liver microsomes, read-out: Microsome Stability t1/2) was more than 1 h; in the data set “Microsomal stability [4]” (human and rat liver microsomes, read-out: Microsomal stability half-life), more than 1 h; in “Microsomal stability [5]”, more than 1 h. In addition, the IC50 at 24 h in the data set “in vitro [6]” and in the data set “in vitro [7]” was more than 20 µM in each case.

With `NC[C@@H]1CN[C@H](CNC(=O)c2cc3ccc(-c4ccc(F)cc4)cc3[nH]2)C1` [TXA09155], the “Lowest concentration enhancing activity of monobactams, fluoroquinolones, sulfonamides and tetracyclines” value in the data set with P. aeruginosa is 6.25 µg/mL.

These data come from paper PMC13114161 (Antibiotics, 2026).
